Assay results reported in the supplement of paper PMC10331698.
± gives the standard deviation of the averaged measurements.

Legend:
Test in all cases: level (log10 ratio to DMSO vehicle control); higher = higher biomarker level / cell amount than vehicle control
Conditions in all cases: in DMSO
[1] = compound: OCC(F)(F)C(F)(F)C(F)(F)C(F)(F)C(F)(F)C(F)(F)C(F)(F)C(F)(F)CO [1H,1H,10H,10H-Perfluorodecane-1,10-diol]
Experimental: (§1)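 BioMAP Diversity Plus panel of 12 human primary cell co-culture systems (3C, 4H, LPS, SAg, BT, BF4T, BE3C, CASM3C, HDF3CGF, KF3CT, MyoF, Mphg). Compounds were added 1 h before stimulation and left for 24 h (MyoF 48 h; BT 72 h for soluble read-outs or 6 d for IgG). Biomarkers were read by ELISA, cytotoxicity by SRB, PBMC viability and proliferation by Alamar Blue. Each well value was divided by the mean of 8 DMSO control wells on the same plate and log10 transformed; duplicate blinded samples were tested at 4 concentrations.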

[2] = compound: O=C(Cl)C(F)(F)C(F)(F)C(F)(F)C(=O)Cl [Hexafluoroglutaryl chloride]
Experimental: as §1

Perfluorooctanoic acid = compound: O=C(O)C(F)(F)C(F)(F)C(F)(F)C(F)(F)C(F)(F)C(F)(F)C(F)(F)F [Perfluorooctanoic acid]
Experimental: as §1

[3] = compound: FC(F)(F)C(F)(F)C(F)(F)C(F)(F)CCI [1H,1H,2H,2H-Perfluorohexyl iodide]
Experimental: as §1

Perfluoropinacol = compound: OC(C(F)(F)F)(C(F)(F)F)C(O)(C(F)(F)F)C(F)(F)F [Perfluoropinacol]
Experimental: as §1

Methotrexate = compound: CN(Cc1cnc2nc(N)nc(N)c2n1)c1ccc(C(=O)N[C@@H](CCC(=O)O)C(=O)O)cc1 [Methotrexate]
Experimental: as §1

[4] = compound: O=C(CC(=O)C(F)(F)C(F)(F)C(F)(F)F)c1cccs1 [(Perfluorobutyryl)-2-thenoylmethane]
Experimental: as §1

Row | Test System | level (log10) ([1]; 6700 nM) | level (log10) ([1]; 20000 nM) | level (log10) ([1]; 60000 nM) | level (log10) ([2]; 6700 nM) | level (log10) ([2]; 20000 nM) | level (log10) ([2]; 60000 nM) | level (log10) (Perfluorooctanoic acid; 6700 nM) | level (log10) (Perfluorooctanoic acid; 20000 nM) | level (log10) (Perfluorooctanoic acid; 60000 nM) | level (log10) ([3]; 6700 nM) | level (log10) ([3]; 20000 nM) | level (log10) ([3]; 60000 nM) | level (log10) (Perfluoropinacol; 6700 nM) | level (log10) (Perfluoropinacol; 20000 nM) | level (log10) (Methotrexate; 1500 nM) | level (log10) (Methotrexate; 4400 nM) | level (log10) (Methotrexate; 13000 nM) | level (log10) (Methotrexate; 40000 nM) | level (log10) ([4]; 6700 nM) | level (log10) ([4]; 20000 nM)
1 | CASM3C:CD87/uPAR | -0.024 ± 0.016 | -0.033 ± 0.031 | -0.116 | -0.014 ± 0.045 | -0.0225 ± 0.012 | -0.015 ± 0.038 | -0.049 ± 0.047 | -0.021 ± 0.082 | -0.0035 ± 0.067 | -0.0015 ± 0.018 | -0.024 ± 0.051 | -0.0345 ± 0.033 | -0.0245 ± 0.015 | -0.107 ± 0.018 | 0.0385 ± 0.037 | 0.033 ± 0.023 | 0.0585 ± 0.015 | 0.04 ± 0.048 | -0.046 ± 0.018 | -0.0065 ± 0.005
2 | CASM3C:CD106/VCAM-1 | 0 ± 0.02 | -0.0065 ± 0.025 | -0.151 | -0.017 ± 0.03 | -0.013 ± 0.024 | 0.0025 ± 0.047 | -0.033 ± 0.011 | -0.0165 ± 0.00071 | 0.019 ± 0.017 | -0.023 ± 0.016 | -0.057 ± 0.0057 | -0.031 ± 0.075 | -0.028 ± 0.0042 | -0.0385 ± 0.015 | -0.022 ± 0.05 | 0.016 ± 0.0014 | 0.009 ± 0.0028 | -0.002 ± 0.027 | -0.0225 ± 0.012 | -0.104 ± 0.028
3 | CASM3C:CD141/Thrombomodulin | -0.0225 ± 0.028 | -0.0335 ± 0.04 | 0.026 | -0.0055 ± 0.037 | -0.0135 ± 0.063 | -0.0125 ± 0.044 | 0.0125 ± 0.0092 | 0.007 ± 0.016 | -0.0115 ± 0.0064 | -0.0085 ± 0.021 | -0.009 ± 0.014 | 0.0275 ± 0.049 | -0.0085 ± 0.021 | 0.0575 ± 0.0035 | 0.0595 ± 0.005 | -0.008 ± 0.093 | 0.0155 ± 0.098 | 0.044 ± 0.021 | 0.0115 ± 0.09 | -0.008 ± 0.1
4 | CASM3C:CD142/Tissue Factor | -0.0275 ± 0.015 | -0.02 ± 0.0042 | -0.033 | -0.0245 ± 0.028 | -0.0635 ± 0.037 | -0.0395 ± 0.035 | -0.0055 ± 0.039 | -0.008 ± 0.048 | -0.0345 ± 0.061 | -0.019 ± 0.034 | -0.0065 ± 0.0078 | 0.0235 ± 0.035 | -0.0515 ± 0.022 | -0.0235 ± 0.06 | 0.0505 ± 0.005 | 0.0195 ± 0.049 | 0.0265 ± 0.042 | 0.0305 ± 0.026 | -0.144 ± 0.013 | -0.105 ± 0.021
5 | CASM3C:CXCL8/IL-8 | -0.0275 ± 0.028 | -0.048 ± 0.0099 | -0.011 | 0.0095 ± 0.021 | 0.006 ± 0.016 | 0.0005 ± 0.052 | 0.014 ± 0.0085 | 0.009 ± 0.0042 | 0.052 ± 0.014 | 0.0105 ± 0.022 | 0.0145 ± 0.028 | 0.0255 ± 0.06 | 0.004 ± 0.011 | 0.029 | 0.0365 ± 0.057 | 0.0255 ± 0.06 | 0.034 ± 0.05 | 0.063 ± 0.061 | -0.0045 ± 0.0021 | -0.043 ± 0.0057
6 | CASM3C:CXCL9/MIG | -0.001 | -0.0035 ± 0.005 | -0.039 | 0.0055 ± 0.043 | -0.002 ± 0.04 | 0.0115 ± 0.1 | 0.016 ± 0.0085 | -0.0065 ± 0.04 | 0.042 ± 0.076 | 0.016 ± 0.028 | 0.022 ± 0.03 | 0.0575 ± 0.09 | -0.013 ± 0.02 | -0.0335 ± 0.011 | 0.0375 ± 0.021 | 0.0225 ± 0.0092 | 0.0165 ± 0.026 | 0.0615 ± 0.035 | -0.0295 ± 0.018 | -0.0945 ± 0.077
7 | CASM3C:HLA-DR | -0.0185 ± 0.0078 | -0.0275 ± 0.0064 | -0.065 | -0.0095 ± 0.0035 | -0.0025 ± 0.033 | 0.002 ± 0.0057 | 0.0045 ± 0.015 | -0.0045 ± 0.0021 | -0.0045 ± 0.043 | -0.012 ± 0.0085 | -0.017 ± 0.02 | 0.0265 ± 0.081 | -0.0885 ± 0.042 | -0.207 | 0.0795 ± 0.0021 | -0.004 ± 0.068 | -0.079 ± 0.013 | 0.0375 ± 0.015 | -0.018 ± 0.0042 | -0.0365 ± 0.022
8 | CASM3C:IL-6 | -0.045 ± 0.027 | -0.071 ± 0.025 | -0.059 | 0.006 ± 0.014 | -0.0145 ± 0.021 | 0.031 ± 0.017 | -0.0135 ± 0.019 | -0.022 ± 0.027 | -0.008 ± 0.031 | 0.0195 ± 0.028 | 0.005 ± 0.025 | 0.036 ± 0.098 | -0.0045 ± 0.025 | 0.033 ± 0.0085 | -0.035 ± 0.041 | -0.087 ± 0.076 | -0.009 ± 0.023 | -0.039 ± 0.041 | -0.006 ± 0.028 | -0.068 ± 0.013
9 | CASM3C:LDLR | -0.016 ± 0.035 | 0.0035 ± 0.016 | -0.048 | -0.052 ± 0.03 | -0.0235 ± 0.025 | 0.0035 ± 0.035 | -0.011 | 0.001 ± 0.013 | 0.004 ± 0.014 | 0.0305 ± 0.021 | 0.02 ± 0.035 | 0.0415 ± 0.053 | -0.067 ± 0.0014 | -0.0505 ± 0.018 | 0.011 ± 0.0042 | 0.0465 ± 0.042 | 0.0205 ± 0.022 | 0.0455 ± 0.066 | -0.044 ± 0.025 | -0.079 ± 0.033
10 | CASM3C:M-CSF | -0.052 ± 0.027 | -0.054 ± 0.014 | -0.065 | -0.001 ± 0.0028 | 0.0095 ± 0.057 | 0.03 ± 0.051 | 0.0005 ± 0.012 | -0.004 ± 0.021 | 0.0145 ± 0.022 | -0.013 ± 0.0014 | -0.02 ± 0.0014 | 0.0035 ± 0.049 | 0.0505 ± 0.0021 | 0.0315 ± 0.0092 | 0.0285 ± 0.013 | -0.051 ± 0.027 | -0.0455 ± 0.0021 | -0.0275 ± 0.081 | 0.014 | 0.012 ± 0.04
11 | CASM3C:PAI-I | -0.0095 ± 0.0035 | -0.011 ± 0.0042 | -0.01 | -0.0135 ± 0.021 | 0.0025 ± 0.0078 | 0.0065 ± 0.0021 | 0.003 ± 0.0085 | -0.0005 ± 0.012 | 0.01 ± 0.018 | 0.0135 ± 0.022 | 0.0165 ± 0.022 | 0.0125 ± 0.044 | -0.006 ± 0.0071 | -0.0075 ± 0.0064 | 0.004 ± 0.013 | 0.0035 ± 0.0064 | 0.0125 ± 0.0035 | 0.0105 ± 0.0021 | -0.0135 ± 0.005 | -0.008 ± 0.0057
12 | CASM3C:Proliferation | -0.011 ± 0.021 | -0.0215 ± 0.00071 | -0.324 | 0.004 ± 0.0042 | -0.012 ± 0.027 | -0.031 ± 0.03 | -0.023 ± 0.051 | -0.0165 ± 0.032 | 0.0105 ± 0.0064 | -0.01 ± 0.0071 | -0.0155 ± 0.016 | -0.0535 ± 0.0064 | -0.02 ± 0.013 | -0.122 ± 0.035 | -0.011 ± 0.096 | 0.0805 ± 0.025 | 0.0585 ± 0.0021 | 0.041 ± 0.014 | -0.0865 ± 0.013 | -0.245 ± 0.018
13 | CASM3C:SRB | 0.0015 ± 0.0021 | -0.002 ± 0.0099 | -0.067 | -0.0045 ± 0.0021 | 0.007 ± 0.0042 | 0.0115 ± 0.016 | -0.005 ± 0.0042 | 0.0005 ± 0.00071 | 0.0095 ± 0.00071 | 0 ± 0.014 | -0.0005 ± 0.0092 | -0.005 ± 0.033 | -0.02 ± 0.0099 | -0.061 ± 0.0057 | 0.001 | -0.0095 ± 0.0064 | -0.0055 ± 0.0035 | -0.0105 ± 0.011 | 0.0105 ± 0.0064 | -0.0125 ± 0.0078
14 | CASM3C:Serum Amyloid A | -0.011 ± 0.0042 | -0.016 ± 0.0057 | -0.059 | -0.022 ± 0.038 | -0.008 ± 0.0042 | -0.002 ± 0.0014 | -0.002 ± 0.013 | 0.006 ± 0.051 | 0.022 ± 0.038 | -0.017 ± 0.0042 | -0.0155 ± 0.039 | 0.0305 ± 0.1 | 0.0545 ± 0.0078 | 0.0595 ± 0.015 | -0.0405 ± 0.015 | -0.0145 ± 0.028 | 0.002 ± 0.045 | -0.044 ± 0.068 | 0.0285 ± 0.013 | -0.038 ± 0.013
